According to PMC7472781, “Inherited and Acquired Determinants of Hepatic CYP3A Activity in Humans” (Frontiers in Genetics, 2020):
Values joined by “and” are separate entries in the source; they are usually repeats but may differ in a detail not shown here. Equal entries are not always repeated. Marks after values point to notes of the source that are not given here.

Key:
CYP3A [1] = assay: clinical; settings: for AUC: 0.2 mg midazolam i.v., zero to infinity; for AUC / Ratio 1-OH-midazolam/midazolam (AUC): value (range)
Experimental: Midazolam was administered as a 2 min intravenous infusion with a total dose of 0.2 mg. The phenotyping test with midazolam was performed on three different occasions with a time interval of at least 1 week and maximally 3 months.
Pharmacokinetic parameters were estimated by non-compartmental analyses using the WinNonlin software (Pharsight Corporation, Mountain View, United States). The AUC from zero to infinity (AUC), was calculated by the linear/log trapezoidal rule and using the terminal elimination rate constant (lambda z). […] Total plasma clearance (Cl) after administration of midazolam was calculated as the ratio dose over AUC. Time (tmax) and amount of maximum plasma concentration (Cmax) were given as measured and the terminal half-life (t1/2) was calculated as t1/2 = ln(2)/lambda z.

CYP3A [2] = assay: Within- and between-subject variance and genetic component (Kalow) of the 4 CYP3A biomarkers, three occasions; settings: for Genetic component: from intra- and inter-individual variation, independent of twin status, AUC, plasma concentration or 24-h urine Ae
Experimental: (§1) Predefined primary endpoint was midazolam AUC. All concentrations and pharmacokinetic parameters were determined on three independent occasions to compare intra- versus interindividual variation. […] In structural equation modeling of heritability and in the other multifactorial analyses the individual means from the measurements or parameters obtained on the three occasions were used. Using structural equation analysis, variation was separated into additive genetic (A), common environmental (C), and unique environmental (E) effects. The heritability is the proportion of the variance resulting from the genetic effect (A). In order to investigate the genetic, common environmental, and unique environmental effects of the different traits taken into account, the possible correlation between traits were fitted in multivariate ACE, AE, and CE biometrical models using the mcglm package for multivariate regression analysis in R. As an exploratory analysis, we computed the correlation between MZ and DZ twins based on an unstructured (equal mean and variance for MZ and DZ twins) model. In all models, the mean structure for each trait was specified as a linear function of the covariates age and sex.

CYP3A [3] = assay: Twin correlations and structural equation modeling (ACE, AE, CE) of heritability of the CYP3A biomarkers; settings: for rdz (correlation between DZ twins) / rmz (correlation between MZ twins): unstructured model
Experimental: as §1

CYP3A [4] = assay: Multifactorial analysis of genetic and environmental effects on the CYP3A probe drugs and biomarkers; settings: in vivo
Experimental: DNA was isolated from whole venous blood by automated solid phase extraction with the EZ1^TM DNA Blood 350 μl Kit using the Bio-robot EZ1^TM (both Qiagen, Hilden, Germany). The CYP3A4^∗1b and ^∗22 alleles as well as the CYP3A5^∗1/^∗3 polymorphism were genotyped by DNA sequencing using fluorescence-labeled dideoxynucleotides and detection via Gene Mapper v3.7 Software® (Applied Biosystems®, Foster City, United States). Zygosity was assessed by analyzing variants in 23 polymorphic genes. Monozygosity was concluded when there were no differences regarding the polymorphisms in both siblings of one twin pair.
as §1

CYP3A [5] = assay: Endogenous CYP3A biomarker in plasma: cholesterol and 4ß-OH-cholesterol (GC-MS, baseline blood samples); settings: for Plasma concentration / Ratio (cholesterol): value (range); for Ratio (cholesterol): plasma
Experimental: Briefly, 10 μl of plasma were spiked with 10 μg of cholesterol-d5 as internal standard. After saponification with 0.5 ml of 1 M NaOH in 90% ethanol at 70°C for 1 h, 250 μl of water were added and the samples extracted with 2 ml of n-hexane. An aliquot of 50 μl of the extract was evaporated to dryness and derivatized with 20 μl of N,O-bis(trimethylsilyl)trifluoroacetamide (BSTFA) for 30 min at room temperature.
Briefly, 1 ml of plasma was spiked with 10 μg of BHT and 50 ng of the internal standard 4ß-hydroxycholesterol-d4 and saponified with 2.5 ml of 1 M NaOH in 90% ethanol at 70°C for 1 h under argon and then extracted with 1 ml of water and 5 ml of chloroform. The chloroform phase was evaporated to dryness in a stream of nitrogen and the residue dissolved in 1 ml of toluene. […] The cartridges were washed with 1 ml of hexane and 10 ml of 2-propanol in hexane (0.5% v/v) and then eluted with 2 ml of 2-propanol in hexane (30% v/v). The eluate was evaporated to dryness in a stream of nitrogen and derivatized with 20 μl of BSTFA for 30 min at room temperature. GC was performed on a J&W DB-5MS column (25 m, 0.2 mm i.d., 0.33 μm film thickness; Agilent) in the splitless mode. For the analysis of cholesterol, the GC oven program started at 150°C and was held for 1 min. […] For the analysis of 4ß-hydroxycholesterol the GC oven program startet at 150°C and was held for 1 min. Temperature was increased with 10°C/min to 250°C, then with 30°C/min to 300°C.

[6] = other studies; ref Diczfalusy et al., 2008; cited from earlier work
CYP3A [7] = assay: Endogenous CYP3A biomarker in 24-h urine: cortisol and 6ß-OH-cortisol (LC-MS-MS); settings: value (range); for Amount in urine: 24 h urine; for Ratio (cortisol): urine
Experimental: Cholesterol and 4ß-OH cholesterol were measured in the baseline blood samples before drug administration. All samples were centrifuged for 10 min (4000 rpm) at 4°C and the plasma was stored at −20°C.
Calibration samples for cholesterol were prepared in isooctane with 10% 2-propanol in the concentration range from 1 to 30 μg. Calibration samples for 4ß-hydroxycholesterol were prepared in isooctane with 0.8% 2-propanol from 5 to 100 ng. […] Calibration samples were worked up as the samples, and analyzed together with the unknown samples. […] The concentration in unknown samples was obtained from the regression line.

CYP3A [8] = settings: cited from earlier work; for CYP3A activity increased: in vivo

Q: What does the source list for `OCc1ncc2n1-c1ccc(Cl)cc1C(c1ccccc1F)=NC2` [1-OH-midazolam, 1′-hydroxymidazolam]?
A: AUC (CYP3A [1]; DZ twins): 73.31 (30.95 – 322.8) μg * min/L; Ratio 1-OH-midazolam/midazolam (AUC) (CYP3A [1]; DZ twins): 0.17 (0.07 – 0.54); AUC (CYP3A [1]; MZ twins): 66.88 (33.75 – 195.6) μg * min/L; Ratio 1-OH-midazolam/midazolam (AUC) (CYP3A [1]; MZ twins): 0.15 (0.09 – 0.61); AUC, inter-individual range (CYP3A [1]; all subjects): 30.95 – 322.8 μg∗min/L; Inter-individual variation in AUC (CYP3A [1]; all subjects): 10.4 fold; AUC, mean (CYP3A [1]; all subjects, three occasions): 86.2 µg·min/L; Intra-individual (between-days) mean coefficient of variation (CYP3A [1]; three occasions): 12.3%; Genetic component (CYP3A [2]): 0.93 and 0.931; Variation that may be due to genetic factors (from genetic component) (CYP3A [2]; human, in vivo): up to 93%; C^2 (common environmental effect) (CYP3A [3]; ACE model): 0.21 (0.23); H^2 (heritability) (CYP3A [3]; ACE model): 0.73 (0.23)*; Variation due to additive genetic (inherited) effects (CYP3A [3]; ACE model): 73%; H^2 (heritability) (CYP3A [3]; AE model): 0.94 (0.01)*; C^2 (common environmental effect) (CYP3A [3]; CE model): 0.78 (0.04)*; rdz (correlation between DZ twins) (CYP3A [3]): 0.59 (0.11)*; rmz (correlation between MZ twins) (CYP3A [3]): 0.94 (0.01)*; Coefficient, CYP3A4*22 (CYP3A [4]): −12.53; Coefficient, CYP3A5*3 (CYP3A [4]): 29.27; Coefficient, age (CYP3A [4]): −1.78; Coefficient, lean body weight (CYP3A [4]): −1.74.; Coefficient, sex (CYP3A [4]): 11.79; Coefficient, smoking status (CYP3A [4]): 1.46; Coefficient, oral contraceptives (CYP3A [4]): −31.33

Q: Which Plasma concentration (CYP3A [5]; DZ twins) does the source give for `CC(C)CCC[C@@H](C)[C@H]1CC[C@H]2[C@@H]3CC=C4[C@@H](O)[C@@H](O)CC[C@]4(C)[C@H]3CC[C@]12C` [4ß-OH-cholesterol, 4ß-hydroxycholesterol] here?
A: The Plasma concentration was 23.07 (15.12 – 46.77) ng/ml.

Q: What about the Plasma concentration (CYP3A [5]; MZ twins) of the same molecule?
A: Its Plasma concentration is 24.56 (12.59 – 62.96) ng/ml.

Q: And the “Plasma concentration, mean” value (CYP3A [5]; all subjects, three occasions)?
A: The value was 25.9 ng/mL.

Q: And the Median plasma level (CYP3A [5]; heterozygous carriers of active CYP3A5*1)?
A: The Median plasma level was 30.69 ng/mL.

Q: And the Median plasma level (CYP3A [5]; homozygous carriers of CYP3A5*3)?
A: The Median plasma level was 23.01 ng/mL.

Q: What about the Genetic component (CYP3A [2]) of the same molecule?
A: The Genetic component was 0.812.

Q: And the “Variance between subjects (Varb) of plasma concentration” value (CYP3A [2]; human, in vivo)?
A: The value was 86.5 ng/mL.

Q: And the “Variance within subjects (Varw) of plasma concentration” value (CYP3A [2]; three occasions)?
A: The value was 14.3 ng/mL.

Q: What about the “C^2 (common environmental effect)” value (CYP3A [3]; ACE model) of the same molecule?
A: Its value is 0.22 (0.26).

Q: What about the “H^2 (heritability)” value (CYP3A [3]; ACE model) of the same molecule?
A: Its value is 0.56 (0.26)*.

Q: What about the “Variation due to additive genetic (inherited) effects” value (CYP3A [3]; ACE model) of the same molecule?
A: The value was 56%.

Q: What about the “H^2 (heritability)” value (CYP3A [3]; AE model) of the same molecule?
A: Its value is 0.79 (0.04)*.

Q: What about the “C^2 (common environmental effect)” value (CYP3A [3]; CE model) of the same molecule?
A: The value was 0.74 (0.04)*.

Q: And the “rdz (correlation between DZ twins)” value (CYP3A [3])?
A: Its value is 0.53 (0.12)*.

Q: And the “rmz (correlation between MZ twins)” value (CYP3A [3])?
A: Its value is 0.79 (0.04)*.

Q: What about the “Coefficient, CYP3A4*22” value (CYP3A [4]; human) of the same molecule?
A: Its value is −8.21.

Q: And the “Coefficient, CYP3A5*3” value (CYP3A [4]; human)?
A: The value was −6.30.

Q: And the “Coefficient, age” value (CYP3A [4]; human)?
A: Its value is 0.16.

Q: What about the “Coefficient, sex” value (CYP3A [4]; human) of the same molecule?
A: The value was −3.32.

Q: And the “Coefficient, lean body weight” value (CYP3A [4]; human, 0.2 mg)?
A: The value was −0.20.

Q: And the “Coefficient, smoking status” value (CYP3A [4]; human, 0.2 mg)?
A: Its value is 3.28.

Q: And the “Coefficient, oral contraceptives” value (CYP3A [4]; human, 0.2 mg)?
A: The value was −2.57.

Q: And the half-life [6]?
A: The half-life was ≥ 17 days.

Q: Which results are given for `CC(C)CCC[C@@H](C)[C@H]1CC[C@H]2[C@@H]3CC=C4C[C@@H](O)CC[C@]4(C)[C@H]3CC[C@]12C` [Cholesterol, cholesterol]?
A: Ratio (cholesterol) (CYP3A [5]; DZ twins): 0.17 (0.12 – 0.25); Plasma concentration (CYP3A [5]; DZ twins): 1.38 (0.94 – 2.12) mg/ml; Ratio (cholesterol) (CYP3A [5]; MZ twins): 0.17 (0.01 – 0.35); Plasma concentration (CYP3A [5]; MZ twins): 1.39 (0.86 – 1.99) mg/ml

Q: With `C[C@]12CCC(=O)C=C1CC[C@@H]1[C@@H]2[C@@H](O)C[C@@]2(C)[C@H]1CC[C@]2(O)C(=O)CO` [Cortisol, cortisol] as the molecule, how does the Amount in urine (CYP3A [7]; DZ twins) read?
A: Its Amount in urine is 32.14 (11.10 – 90.00) μg.

Q: What about the “Ratio (cortisol)” value (CYP3A [7]; DZ twins) of the same molecule?
A: Its value is 6.75 (3.38 – 18.22).

Q: What about the Amount in urine (CYP3A [7]; MZ twins) of the same molecule?
A: The Amount in urine was 35.85 (10.05 – 142.80) μg.

Q: What about the “Ratio (cortisol)” value (CYP3A [7]; MZ twins) of the same molecule?
A: The value was 6.29 (3.09 – 14.65).

Q: Which CYP3A activity increased (CYP3A [8]) does the source give for `NC(=O)N1c2ccccc2C=Cc2ccccc21` [carbamazepin] here?
A: The CYP3A activity increased was “up to 10 fold”.

Q: For `CCC(C)n1ncn(-c2ccc(N3CCN(c4ccc(OCC5COC(Cn6cncn6)(c6ccc(Cl)cc6Cl)O5)cc4)CC3)cc2)c1=O` (stereo not shown) [itraconazole], which “CYP3A activity reduced to” value (CYP3A [8]; strong inhibitors, ref Kim et al., 2006, Greenblatt and Harmatz, 2015) is on record?
A: Its value is 10%.

Q: Which CYP3A activity increased (CYP3A [8]) does the source give for `CCC1(c2ccccc2)C(=O)NC(=O)NC1=O` [phenobarbital] here?
A: Its CYP3A activity increased is “up to 10 fold”.
